The test system of the series is L929 cells (DSM ACC2, mouse fibroblasts). The series is described as follows: Cytotoxicity of PHMB-HCl coated thread extracts, growth inhibition (BCA Assay method). The conditions noted are these: positive control 7.5% v/v DMSO, 72 h. The class given is cell-based. The procedure: The test was carried out in accordance with the standard EN ISO/IEC 17025. The thread pieces were extracted in the absence of light with the DMEM-FBS cell culture medium at 37±2° C. for 7 days. The absorbed DMEM-FBS was made up to a volume such that the surface/volume ratio was 9 cm^2/ml. As a negative control, DMEM-FBS was incubated at 37±2° C. for 7 days without test material. 7.5% v/v DMSO was used as positive control. Extracts and negative controls were diluted in five steps with DMEM-FBS solution (dilution ratio 2:3). 100 μl of the dilute solutions of the extracts and of the negative controls and also 100 μl of the positive controls were added in triplicate to wells in a […]. Thereafter, 50 μl of a freshly prepared cell suspension (7.5×10^4 cells/ml) were added to all wells except those used for background determination. The final concentrations of the extracts were accordingly 66.7%, 44.5%, 29.6%, 19.8%, 13.2% and 8.8% v/v. The plates were then incubated at 37±2° C. in humidified air (5% CO2/95% air) for 72±2 hours. Thereafter, the protein content of the samples was determined calorimetrically at a wavelength of 550 nm (BCA Assay method). The test organisms used were L929 cells (DSM ACC2, mouse fibroblasts, clone of the L strand). […] FBS and P/S from Biochrom (Berlin) and BCA protein quantification kit from Interchim (France).

For `C[S+](C)[O-]` [Positive control, DMSO], the Growth inhibition is listed as 81%.

The record behind these values is patent US20090155339A1, “Biocompatible Antimicrobial Filament Material” (AESCULAP AG & CO. KG, priority 2005, published 2009).
